{
  "source": "patent US20230097992A1",
  "about": "“BIVALENT EGF FUSION TOXINS” (The Regents of the University of Colorado, a body corporate, priority 2020, published 2023)",
  "key": {"[1]": {"system": "HNSCC Cal27 tongue-orthotopic tumors", "test": "Tongue-orthotopic tumor-bearing NSG mouse model", "assay_type": "in vivo, NSG mice", "details": "for Median survival time: Tongue orthotopic model, fusion toxin or DT390 50 μg/kg IP, erlotinib 20 mg/kg gavage, once daily for 10 days from day 4; for tongue SCC tumor volume versus mono-EGF-IT and DT390 groups: second cohort, euthanized 8 days after tumor cell inoculation", "description": "FIGS. 7A-7C presents the data from two animal studies of in vivo efficacy analysis of the human EGF fusion toxins against tongue squamous cell carcinomas (SCCs) in NSG mice. FIG. 7A presents the data from in vivo efficacy analysis of the human EGF fusion toxins using human EGFR-positive HNSCC Cal27 tongue-orthotopic tumor-bearing NSG mouse model. Eight million human EGFR-positive HNSCC Cal27 cells were injected into the tongue on day 0. Mice were injected intraperitoneally (IP) with the EGF fusion toxin or DT390 at 50 μg/kg, starting on day 4, once daily for 10 consecutive days. […] The schedule of the fusion toxin and tumor cell injection is pictured in the schematic below the survival curve. The vertical arrows indicate the days on which the tumor cells or the fusion toxins were injected. *P<0.05; **P<0.01; ***P<0.001; ****P<0.0001; ns: not significant.\nFIG. 7B presents the data from a further in vivo efficacy analysis of the human EGF fusion toxins. […] The mice were euthanized on day 8 after tumor cell injection when the first mouse in the DT390 group reached the end point. The photograph depicts tongue squamous cell carcinomas (SCCs) (circled by the black dotted lines). Scale bar: 1 cm. FIG. 7C presents the FIG. 7B tumor volume comparison of the treatment groups. *P<0.05; **P<0.01\n(§1) HNSCC tumor cells were injected via the following routes: 1) Flank-xenograft solid tumor model: eight million human HNSCC Cal27 tumor cells were subcutaneously injected into the right flank at day 0. The tumor-bearing mice were randomly divided into the four experimental groups when the tumors were palpable at day 3. The tumor volume was measured using digital vernier calipers every 3 days and calculated according to the formula: volume (mm^3)=(length×width×width)/2. 2) Tongue-orthotopic solid tumor model: eight million human HNSCC Cal27 tumor cells in 50 μl DMEM were injected into the tongue at day 0 following isoflurane anesthesia and the tumor-bearing mice were randomly divided into the planned four experimental groups at day 3. 3) Experimental metastasis model: one million human HNSCC Cal27 tumor cells in 200 μl DMEM were intravenously injected at day 0 via tail vein and the tumor-bearing mice were randomly divided into the four experimental groups at day 3.\n(§2) Mono-EGF-IT (mEGF-IT), bEGF-IT, or DT390 was intraperitoneally injected (IP) starting at day 4 at 50 μg/kg, once daily for 10 consecutive days. […] The injected animals were observed daily for signs and symptoms of illness and scored at least twice weekly based on the parameters as previously reported (Peraino et al. (2013), J. Immunol. Methods 398-399, 33-43, which is hereby incorporated by reference in its entirety; Wang et al., 2015). The animals were humanely euthanized when the score exceeded the limit or the animal lost more than 15% of its pre-injection body weight. In addition, to assess whether the fusion toxins are toxic to the animals, NSG mice injected with the fusion toxins only were also included as control.\nTo assess the in vivo efficacy of the human EGF fusion toxins to the xenograft tumors in the head and neck area, a tongue-orthotopic tumor-bearing NSG mouse model was used as a second efficacy model. Eight million HNSCC Cal27 cells were injected into the tongue at day 0. The EGF fusion toxins were injected intraperitoneally (IP) starting on day 4 at 50 μg/kg daily for 10 consecutive days. Since the resulting tongue-orthotopic tumors severely affected the animal's eating and drinking, animals were euthanized earlier. Therefore, the median survival prolongation was not as impressive as that observed in the flank-xenograft solid tumor-bearing NSG mouse model. […] To further characterize the effect of the EGF fusion toxins on tumor volume, the orthotopic tongue SCC model study was repeated, and the mice were euthanized 8 days after tumor cell inoculation."}, "[2]": {"system": "HNSCC Cal27 cells injected intravenously (lung metastases)", "test": "Experimental lung metastasis NSG mouse model", "assay_type": "in vivo, NSG mice", "details": "for Median survival time: Lung metastasis model, fusion toxin or DT390 50 μg/kg IP, erlotinib 20 mg/kg gavage, once daily for 10 days from day 4; for number of metastases in the lungs: second cohort, euthanized 10 days after tumor cell inoculation", "description": "FIG. 8A-C presents data from in vivo efficacy analysis of the human EGF fusion toxins using an experimental lung metastasis NSG mouse model. FIG. 8A presents data from a first animal study for survival curve analysis. NSG mice were IV injected with one million human EGFR^+ HNSCC Cal27 cells on day 0. Mice were injected intraperitoneally (IP) with the EGF fusion toxin or DT390 at 50 μg/kg, once daily for 10 consecutive days starting on day 4 after the tumor cell injection. […] The schedule of the fusion toxin and tumor cell injection is pictured in the schematic below the survival curve. The vertical arrows indicate the days on which the tumor cells or the fusion toxins were injected. *P<0.05; **P<0.01; ***P<0.001; ****P<0.0001. The P-values for the survival curves were calculated using the Mantel-Cox log-rank test (GraphPad Prism9.0).\nFIGS. 8B and C present data from a second animal study for a pathology analysis. […] The mice were euthanized on day 10 after tumor cell injection when the first mouse in the DT390 group reached the end point. FIG. 8B presents H&E pictures of lung metastases. Metastases are indicated in the upper panels by black arrowheads. Scale bar: 500 μm. The lower panels are higher magnification pictures of the area in black rectangles in the upper panels. […] Error bars indicate standard deviation (SD).\nas §1, §2\nThe third in vivo efficacy model was an experimental metastasis model. One million of HNSCC Cal27 tumor cells were intravenously injected via the tail vein of NSG mice at day 0. The EGF fusion toxins were injected intraperitoneally (IP) starting on day 4 at 50 μg/kg daily for 10 consecutive days. […] To further assess the effects of the fusion toxins on metastasis, the experimental metastasis study was repeated with a second cohort of NSG mice, and all mice were euthanized 10 days after tumor cell inoculation, when the first mouse in the DT390 group reached the end point. The data are depicted in FIGS. 8B and C."}},
  "note": "“Also recorded” adds a separate entry of the source.",
  "data": [
    {"compound": "C#Cc1cccc(Nc2ncnc3cc(OCCOC)c(OCCOC)cc23)c1", "note": "[Erlotinib]", "values": [
      {"measurement": "Median survival time", "setting": "[1]", "value": 16.5, "unit": "days"},
      {"measurement": "tongue SCC tumor volume versus mono-EGF-IT and DT390 groups", "setting": "[1]", "value": "significantly smaller"},
      {"measurement": "Median survival time", "setting": "[2]", "value": 30, "unit": "days"},
      {"measurement": "number of metastases in the lungs", "setting": "[2]", "value": "reduced compared with the DT390-negative control group"}
    ]},
    {"compound": "Bi-EGF IT: DT390 joined by G4S to two human EGF domains linked by (G4S)3, C-terminal 6×His tag; SEQ ID NO: 10", "values": [
      {"measurement": "Median survival time", "setting": "[1]", "value": 15, "unit": "days"},
      {"measurement": "tongue SCC tumor volume versus mono-EGF-IT and DT390 groups", "setting": "[1]", "value": "significantly smaller"},
      {"measurement": "Median survival time", "setting": "[2]", "value": 38, "unit": "days"},
      {"measurement": "number of metastases in the lungs", "setting": "[2]", "value": "reduced compared with the DT390-negative control group; also recorded: reduction was greater in the bi-EGF-IT group than in the mono-EGF-IT group"}
    ]}
  ]
}
